These results are taken from ChEMBL document CHEMBL5244224, “Antioxidant Activity of Natural Allylpolyalkoxybenzene Plant Essential Oil Constituents” (J Nat Prod, 2019).

Active and inactive are the calls of the source. The rule behind the calls is not given here. A value given as a limit tells only on which side of the number the result lay.

Data set [1] is described as follows: Antioxidant activity assessed as DPPH radical scavenging capacity at 0.1 mM incubated for 30 mins under dark condition by absorbance based assay. In kind it is functional. (In general: DPPH is a stable violet radical that fades when it is reduced.)
A short description of data set [2]: Antioxidant activity assessed as DPPH radical scavenging capacity at 1 mM incubated for 30 mins under dark condition by absorbance based assay. In kind it is functional.
The species entered for data set [3] is Mus musculus. The data set is described as follows: Antioxidant activity in mouse brain homogenate assessed as inhibition of FeSO4/ascorbic acid induced lipid autoxidation by measuring reduction in TBARS formation at 0.1 mM preincubated with compound for 30 mins followed by FeSO4/ascorbic acid addition and measured after 1 hrs by TBARS assay. The note with it: time 1.5 hrs. In kind it is functional.

The species entered for data set [4] is Mus musculus. The data set is described as follows: Antioxidant activity in mouse brain homogenate assessed as inhibition of FeSO4/ascorbic acid induced lipid autoxidation by measuring reduction in TBARS formation at 1 mM preincubated with compound for 30 mins followed by FeSO4/ascorbic acid addition and measured after 1 hrs by TBARS assay. In kind it is functional. The following applies: time 1.5 hrs.

Data set [5] is filed under the species Mus musculus. The data set can be described thus: Antioxidant activity in mouse brain homogenate assessed as inhibition of FeSO4/ascorbic acid induced lipid autoxidation by measuring reduction in TBARS formation at 0.5 mM preincubated with isopropanol for 30 mins followed by compound addition for 30 mins and measured 1 hrs after FeSO4/ascorbic acid addition by TBARS assay. In kind it is functional. The following applies: time 1.5 hrs.

For data set [6], the system named is Erythrocyte. The data set can be described thus: Antioxidant activity in mouse RBC assessed as inhibition of H2O2-induced hemolytic activity at 0.01 mM preincubated with compound for 30 mins followed by H2O2 addition and measured for 5 hrs. In kind it is functional, cell-based. The note with it: time 5.5 hrs.
The test system of data set [7] is Erythrocyte. The data set can be described thus: Antioxidant activity in mouse RBC assessed as inhibition of H2O2-induced hemolytic activity at 0.1 mM preincubated with compound for 30 mins followed by H2O2 addition and measured after 5 hrs. The following applies: time 5.5 hrs. In kind it is functional, cell-based.
Data set [8] relates to Erythrocyte. The data set is described as follows: Antioxidant activity in H2O2-induced mouse RBC cells assessed as inhibition of methemoglobin formation at 0.01 mM preincubated with compound for 30 mins followed by H2O2 addition and measured after 5 hrs. In kind it is functional, cell-based. The note with it: time 5.5 hrs.
The subject of data set [9] is Erythrocyte. The data set can be described thus: Antioxidant activity in H2O2-induced mouse RBC cells assessed as inhibition of ferryl-hemoglobin formation at 0.01 mM preincubated with compound for 30 mins followed by H2O2 addition and measured after 5 hrs. In kind it is functional, cell-based. The note with it: time 5.5 hrs.
Data set [10] can be described thus: Hemolytic activity in mouse RBC assessed as hemolysis at 0.1 mM measured after 5 hrs. In kind it is toxicity, cell-based, Erythrocyte. The following applies: mouse red blood cells, read-out: Activity.
The subject of data set [11] is Erythrocyte. The data set is described as follows: Antioxidant activity in H2O2-induced mouse RBC assessed as inhibition of lipid peroxidation by measuring MDA formation at 0.01 mM preincubated with compound for 30 mins followed by H2O2 addition and measured after 4 hrs by spectrophotometric analysis. In kind it is functional, cell-based. The following applies: time 4.5 hrs.

The test system of data set [12] is Erythrocyte. The data set can be described thus: Antioxidant activity in H2O2-induced mouse RBC cells assessed as reduction in metHB/oxyHB ratio at 0.01 mM preincubated with compound for 30 mins followed by H2O2 addition and measured after 5 hrs. In kind it is functional, cell-based. The following applies: time 5.5 hrs.
Data set [13] has as its system Erythrocyte. The data set is described as follows: Antioxidant activity in mouse RBC assessed as inhibition of H2O2-induced hemolytic activity at 0.01 mM preincubated with compound for 30 mins followed by H2O2 addition and measured at 1 to 3 hrs. In kind it is functional, cell-based. The note with it: time 1.5-3.5 hrs.

For the compound `C=CCc1cc(OC)c2c(c1)OCO2` [ELEMICIN], the Activity in [1] is 1.31%; in data set [2] it was 5.25%. The result in the data set listed under Mus musculus [3], in the data set listed under Mus musculus [4], with Erythrocyte [6], in the data set on Erythrocyte [7], in the data set on Erythrocyte [8] and with Erythrocyte [9] was Active. Besides, in the data set listed under Mus musculus [5], the outcome was inactive.
As for `C=CCc1ccc2c(c1)OCO2` [SAFROLE], the Activity in data set [1] worked out at 1.26%; in [2], 10.6%. In addition, the result in the data set listed under Mus musculus [3] and in the data set with Erythrocyte [7] was inactive. Also, the outcome in the data set filed under Mus musculus [4], in the data set with Erythrocyte [6], with Erythrocyte [8] and in the data set on Erythrocyte [9] was Active. The hemolysis at 5 h, 100 µM in [10] was no more than 10%.
Regarding `C=CCc1cc(OC)c(OC)c(OC)c1OC`, the Activity in [1] came to 0.1%; in [2] it was 1.47%. For the same compound, the result in the data set filed under Mus musculus [3] and in the data set with Erythrocyte [7] was inactive. Moreover, the result in the data set listed under Mus musculus [4], in the data set with Erythrocyte [6], in the data set with Erythrocyte [8] and in the data set with Erythrocyte [9] was Active.
Take `C=CCc1c(OC)c(OC)c2c(c1OC)OCO2`: the Activity in [1] came out at 0.91%; in [2] it was 4.3%. For the same compound, the outcome in the data set filed under Mus musculus [3] and in the data set filed under Mus musculus [4] was Active. Besides, the outcome in the data set listed under Mus musculus [5], with Erythrocyte [6] and in the data set with Erythrocyte [11] was inactive.
With `C=CCc1cc(OC)c2c(c1OC)OCO2` [APIOL], the results for the Activity in data set [1] and in data set [2] were 0.05% and 0.3%, respectively. Moreover, the result in the data set listed under Mus musculus [3], in the data set listed under Mus musculus [4], with Erythrocyte [6], with Erythrocyte [8] and with Erythrocyte [9] was Active. Further, the result in the data set filed under Mus musculus [5] and with Erythrocyte [7] was inactive. The hemolysis at 5 h, 100 µM in [10] was no more than 10%.
Consider `C=CCc1ccc(OC)cc1`, for which the values for the Activity in data set [1] and in data set [2] were 0.25% and 1.16%, respectively. Further, the result in the data set filed under Mus musculus [3] and with Erythrocyte [7] was inactive. Also, the result in the data set listed under Mus musculus [4], in the data set on Erythrocyte [6], in the data set on Erythrocyte [8] and with Erythrocyte [9] was Active.
On to `Cc1cc(C(C)(C)C)c(O)c(C(C)(C)C)c1`, for which, in [1], the Activity turned out to be 72%. In addition, the result in the data set listed under Mus musculus [3], with Erythrocyte [11], in the data set with Erythrocyte [8], with Erythrocyte [9] and with Erythrocyte [12] was Active.
For the compound `C=CCc1c(O)c(OC)c2c(c1OC)OCO2`, the Activity stood at 88.9% in [1] and 90.2% in [2]. The result in the data set filed under Mus musculus [3], in the data set listed under Mus musculus [4], with Erythrocyte [6], in the data set on Erythrocyte [11] and in the data set on Erythrocyte [13] was Active. In addition, the result in the data set filed under Mus musculus [5] was inactive.
For the compound `C=CCc1cc2c(c(OC)c1OC)OCO2` [DILLAPIOLE], the Activity in [1] was 0.38%; in [2] it was 3.94%. The result in the data set filed under Mus musculus [3], in the data set filed under Mus musculus [4], with Erythrocyte [6], with Erythrocyte [7], in the data set with Erythrocyte [8] and in the data set on Erythrocyte [9] was Active. The outcome with Erythrocyte [12] was Active. For the same compound, in the data set filed under Mus musculus [5], the outcome was inactive. Besides, the hemolysis at 5 h, 100 µM in data set [10] is no more than 10%.
On to `C=CCc1ccccc1`, for which the Activity in data set [1] came out at 1.01%; in data set [2], 4.29%. The result in the data set listed under Mus musculus [3] and in the data set with Erythrocyte [7] was inactive. Moreover, the result in the data set filed under Mus musculus [4], in the data set with Erythrocyte [6], in the data set with Erythrocyte [8] and in the data set on Erythrocyte [9] was Active.
On to `Cc1c(C)c2c(c(C)c1O)CCC(C)(C(=O)O)O2` (stereo unspecified), for which, in [1], the Activity is 94.9%. For the same compound, the result in the data set listed under Mus musculus [3] was Active.
